In a melting point compilation (Tetko et al.; mined from patent text by program, amines drawn as free bases though some values may be those of a salt) one finds melting point data, which are given here for 88 molecules.

Regarding `Cn1cnc(COc2nc3c(cc2C(C)(C)C)nnn3-c2ccccc2)n1`, the melting point was in the range of 179 to 180 °C.

The molecule `Fc1cc(F)cc(-c2cccc3[nH]c4c(c23)CCN(Cc2ccccc2)CC4)c1` gave a melting point of 172 to 175 °C.

`O=C(C=Cc1ccc(Cl)cc1)C(CC=Cc1ccccc1)c1ccccc1` (stereo not drawn) yielded a melting point of 92 to 95 °C.

As to `Cc1c(C(=O)c2cccc(C(F)(F)F)c2F)c2ccc(Cl)c(Cl)c2n1CCCNS(C)(=O)=O`, the melting point amounted to 181 °C.

The molecule `O=C1c2ccccc2C(=O)N1CCCOc1cccc2c(O)nccc12` came in with a melting point greater than 300 °C.

In the case of `OCc1ccc(CO)c(Br)c1`, the melting point was determined as 104 °C.

As for `COC(=O)c1sc(-c2ccc(C#N)cc2)nc1C`, the melting point was 186 to 187 °C.

The molecule `COC(=O)[C@H]1CC[C@H](NC(=O)c2cc(-c3ccc(C(=N)N)cc3)nn(Cc3ccccc3)c2=O)CC1` registered a melting point of 168 to 173 °C.

As for `O=C1C(=Cc2ccncc2)CCc2cc(OCCn3ccnc3)ccc21`, the melting point lay within 128 to 129 °C.

Molecule `CCC(=O)NC(C)(C)COc1cccc2nc(C)c(C(=O)O)c(N)c12` displayed a melting point of 189 to 193 °C.

With `COC(=O)c1cccc2c1N(CCN(C(C)C)C(C)C)C(=O)/C2=N\NC(N)=O`, the melting point was in the range of 192 to 195 °C.

Molecule `CCOC(=O)C=C(NC(=O)Nc1cc(OC(C)C)c(Cl)cc1F)C(F)(F)F` registered a melting point of 144 to 146 °C.

Turning to `O=C(O)c1ccc2nc3ccccn3c(=O)c2c1`, the melting point is greater than 310 °C.

As for `CNC(=O)Oc1cccc(C2CCCN2C(=O)c2ccccc2)c1` (stereo not drawn), the melting point is 117 to 121 °C.

Consider `COC(C1=CN(C)CS1)c1ccccc1COc1cc(Cl)ccc1Cl` (stereo not drawn), for which the melting point lay within 78.5 to 79.5 °C.

Take `CSc1cc(C)nc(SC)c1NC(=O)CCCCSc1nc2ccccc2o1`: the melting point is 147 to 150 °C.

In the case of `Cl/C(=C/n1cncn1)c1ccc(Br)cc1Cl`, the melting point is 84 °C.

The molecule `CC(C)(C=O)CN1CCN(CC(C)(C)C=O)C1=O` yielded a melting point of 78 to 80 °C.

For `CC1=CC(=C(C#N)C#N)C=C(C)N1CCOCCCl`, the melting point was in the range of 148 to 149 °C.

Turning to `CCC(COCc1cc(OC)c(O)c(OC)c1)(c1cccs1)N(C)C` (stereo not drawn), the melting point fell in the range of 126 to 127 °C.

For `COc1cc(OCc2c(C)noc2C)c(C=CC(=O)c2ccc(C(=O)O)cc2)cc1-c1cccs1`, the melting point was in the range of 213 to 215 °C.

`O=S(=O)(c1ccccc1)n1c(SC(F)(F)F)nc(-c2ccc(F)cc2)c1-c1ccc(F)cc1`: the melting point is 154 to 155 °C.

Take `O=C(O)CCCCCCC1C(=O)NC(=O)N1CCCCCc1ccccc1` (stereo not drawn): the melting point is 90 to 92 °C.

In turn, `COC(=O)C1Cc2c(cccc2-c2ccccc2)CN1` (stereo not drawn) returned a melting point of 149 to 150 °C.

For `CC(C)(C)OC(=O)NCCCC(COC(=O)Oc1ccc([N+](=O)[O-])cc1)NC(=O)OCC1c2ccccc2-c2ccccc21` (stereo not drawn), the melting point fell in the range of 140 to 142 °C.

`CN1CC(CCN2CCN(c3ccccn3)CC2)c2nc3ccccc3n2C1=O` (stereo not drawn) registered a melting point of 158 to 159 °C.

In turn, `COC(=O)c1cccc(-c2ncc(N=CN(C)C)cn2)c1` displayed a melting point of 146 °C.

Regarding `CCOC(=O)NC(=O)C(F)F`, the melting point is 55 to 57 °C.

`CC(C)C[C@@H]1NC(=O)[C@@H]1O` registered a melting point of 141 to 142 °C.

As to `C=C(CCC(=O)N1C(=O)OC[C@H]1c1ccccc1)c1ccc(F)cc1F`, the melting point lay within 50 to 55 °C.

For `O=C1CCc2c(Br)cccc2C1`, the melting point worked out at 62 °C.

Turning to `c1cc(N2CCNCC2)c2nccnc2c1`, the melting point lay within 106 to 108 °C.

Take `FC(F)(F)c1cc(I)cc(OCc2ccc3ccccc3c2)c1`: the melting point is 65 to 66 °C.

Regarding `CCCN(CCCCNC(=O)NC1Cc2ccccc2C1)C1CCc2ncsc2C1` (stereo not drawn), the melting point was 93 °C.

For the molecule `Cc1nc(N)nc(N)c1-c1cc(N)ccc1Cl`, the melting point lay within 117 to 121 °C.

Consider `CS(=O)(=O)c1ccc(C(=O)c2cnoc2C2CC2)c(C(F)(F)F)c1S(C)(=O)=O`, for which the melting point lay within 191 to 193 °C.

Molecule `COc1cccc(Oc2c(NS(=O)(=O)c3ccc(C(C)(C)C)cc3)ncnc2SCCOc2ncccn2)c1` yielded a melting point of 168 °C.

For `CSc1nc(NC2CC2)nc(Cl)c1C#N`, the melting point fell in the range of 139 to 141 °C.

Turning to `NC(=O)c1ncn2c1[C@@H]1CCCN1C(=O)c1sccc1-2`, the melting point lay within 222 to 223 °C.

With `CCOC(=O)c1c(OCC)ccn1C(=O)n1cccc1C(=O)O`, the melting point is 58 to 60 °C.

Molecule `C=CCc1cc(CNC)ccc1C#CC1(O)CN2CCC1CC2` (stereo not drawn) yielded a melting point of 80 °C.

Take `Clc1ccc2[nH]c3c(c2c1)CN(CCc1ccccn1)CC3`: the melting point was 198 to 200 °C.

On to `COc1ccc(C2CSc3ccccc3N(CCCl)C2=O)cc1` (stereo not drawn), for which the melting point is 70 °C.

`CCN(CC)C(=O)CCCCCN1CCC(NC(=O)c2cnc3c(OC)cccc3c2Nc2ccc(C(=O)NC3CCN(Cc4ccccc4)CC3)cc2)CC1` showed a melting point of 115 to 120 °C.

`COc1ccccc1CNc1cccnc1Cl` showed a melting point of 121 to 125 °C.

As to `Cc1nc(Nc2c([N+](=O)[O-])cc([N+](=O)[O-])cc2C(F)(F)F)c(Cl)c(C)c1Cl`, the melting point is 131 to 133 °C.

Regarding `Cc1cc(Cl)ccc1N1CCC(=O)N(C)C1=O`, the melting point was in the range of 120 to 127 °C.

In the case of `Cc1nn(C2CCCC2C)c(N)c1C(N)=O` (stereo not drawn), the melting point lay within 124 to 126 °C.

In turn, `O=S(=O)(c1ccc(Cl)cc1)N1CCCC1c1ccsc1` (racemic) came in with a melting point of 120 °C.

For `Cc1nnc(-c2ccccc2F)n2nc(OCc3ncn(C)n3)c(-c3ccsc3)c12`, the melting point lay within 214 to 217 °C.

The molecule `COc1ccc(Sc2cc(C(=O)O)c[nH]2)cc1` returned a melting point of 144 to 147 °C.

`CC(C)c1cccc(C(C)C)c1NC(=O)N(Cc1ccc(N(C)C)cc1)c1ccc(C(F)(F)F)cc1` showed a melting point of 129 to 130 °C.

`COC(=O)NNC(=O)c1n[nH]c2cc(OC)c(OC)cc12` showed a melting point of 235 °C.

In turn, `CCN(CCCP(=O)(O)O)S(=O)(=O)C(F)(F)C(F)(F)C(F)(F)C(F)(F)F` registered a melting point of 138 to 140 °C.

Molecule `O=C(O)c1cccc(CCl)c1` had a melting point of 134 to 136 °C.

In the case of `Cc1ccc2ncc3nc(C(F)(F)F)n(C)c3c2c1`, the melting point is 220 to 223 °C.

The molecule `CC(C)(C)N(NC(=O)c1ccco1)C(=O)c1ccccc1` registered a melting point of 160 to 162 °C.

`CC(=O)OC1CCCC(n2cnc3cc(Cl)c(Cl)cc32)C1OC(C)=O` (stereo not drawn) returned a melting point of 163 to 165 °C.

`COc1cccc(OC2COc3ccc(OCc4ccc5ccccc5n4)cc3C2O)c1` (stereo not drawn) had a melting point of 128 to 129 °C.

`O=C(NCc1ccccn1)c1cc(C(F)(F)F)cc(C(F)(F)F)c1` yielded a melting point of 123 to 124 °C.

`O=c1ccccn1[C@@H]1C[C@H](O)[C@@H](O)[C@H]1O` (racemic) returned a melting point of 138 to 140 °C.

Consider `CCOC(=O)c1cn(Cc2ccccc2)nc1OCc1ccc(OCc2nc(-c3ccco3)oc2C)c(-c2ccccc2)c1`, for which the melting point fell in the range of 134 to 135 °C.

Molecule `O=C(NCCC[C@H]1OC[C@H](c2cccc3cc(OCC4CC4)ccc32)CO1)OCC(F)(F)F` came in with a melting point of 105 to 107 °C.

As to `O=C1C(=O)N2CCCc3cc([N+](=O)[O-])cc1c32`, the melting point was in the range of 198 to 199 °C.

On to `Cc1nc(N2CCCC(CCc3ccccc3)C2=O)sc1C(=O)NCc1ccccc1` (stereo not drawn), for which the melting point was 124 to 126 °C.

`CCN(CC)c1ccc(C=CC(=O)C=Cc2ccc(N(CC)CC)cc2)cc1` showed a melting point of 168 °C.

In the case of `CCCC[C@H](NC(=O)[C@H](CCCCNC(=O)OC(C)(C)C)NC(=O)OCc1ccccc1)C(=O)CSCc1ccco1`, the melting point was 60 to 63 °C.

With `CCOC(=O)C1=C(N)N=C(OCC)C(C(=O)OCC)C1c1ccc(-c2ccccc2)cc1` (stereo not drawn), the melting point amounted to 145 °C.

Molecule `CS(=O)(=O)Oc1cnc2ccccc2c1O` yielded a melting point of 224 °C.

As for `c1ccc2c(c1)C[C@H]1CSC(=Nc3cccc4ncccc34)N1C2`, the melting point was 194 °C.

Turning to `COc1ccc(C(=O)Nc2ccc(F)cc2)cc1Nc1cccc(C(F)(F)F)c1`, the melting point lay in the range of 163 to 164 °C.

Molecule `COc1ccsc1-c1nsc2ccc(N3C(=O)C4=C(CCCC4)C3=O)cc12` registered a melting point of 146 to 149 °C.

`O=C(/C=C/c1ccc(S(=O)(=O)N2CCN(c3ccccc3F)CC2)cc1)NO` returned a melting point of 196 to 197 °C.

Molecule `CC(C)(C)SC(=S)c1cc(C(C)(C)C)c(O)c(C(C)(C)C)c1` gave a melting point of 128 to 130 °C.

As for `O=C(Nc1c(Cl)cccc1Cl)N1CCN(c2cnccn2)CC1`, the melting point lay in the range of 177 to 179 °C.

Regarding `COc1ccc2c(Cc3c(Cl)cncc3Cl)nnc(N3CCN(C)CC3)c2c1`, the melting point was in the range of 160 to 162 °C.

The molecule `CCOC(=O)CC1CN(c2c(C)cccc2C)C(=N)N1c1c(C)cccc1C` (stereo not drawn) yielded a melting point of 142 to 144 °C.

With `Cc1cc(SCc2cccc3cn(-c4ccc(C(F)(F)F)cc4)nc23)ccc1OCC(=O)O`, the melting point was 79 to 81 °C.

For `COc1cc(C2CCN(C[C@H](O)CO)CC2)ccc1Nc1ncc2ccc(-c3ccccc3N(C)S(C)(=O)=O)n2n1`, the melting point fell in the range of 108 to 116 °C.

As to `O=[N+]([O-])c1cccc(OCc2ccccc2)c1[N+](=O)[O-]`, the melting point was in the range of 100 to 101 °C.

`CNC(=O)C1=CC(C)(C)Oc2ccc([N+](=O)[O-])cc21` displayed a melting point of 166 to 168 °C.

`Cc1ccc(S(=O)(=O)Oc2ccc3c4c(nn3CCCN)-c3cnccc3C(=O)c24)cc1` yielded a melting point of 211 to 213 °C.

`CCCc1c(Cc2ccccc2)ccc2c(=O)cc(CCC(=O)O)oc12` showed a melting point of 160 to 161 °C.

As to `COc1ccc(N2CCOCC2)cc1NC(=O)c1ncc[nH]1`, the melting point was in the range of 227 to 230 °C.

The molecule `COc1ccc(S(=O)(=O)CCNC(=O)N2CCCC2=O)cc1` yielded a melting point of 124 to 125 °C.

Consider `Cn1c(-c2ccc(OC3CCN(C4CCC4)CC3)cc2)nc2ncccc2c1=O`, for which the melting point lay in the range of 146 to 150 °C.

The molecule `Cc1ccc(C2CC(C(N)=O)=NN2c2ccc(S(N)(=O)=O)cc2)cc1` (stereo not drawn) registered a melting point of 210 to 215 °C.

In turn, `Nc1ccc(C2=NN3C(=O)OCC3Cc3cc4c(cc32)OCO4)cc1` (stereo not drawn) returned a melting point of 173 to 175 °C.
